Reference: patent publication US12225917B2 (priority 2017, dated 2025)

What was measured:
[1] = General safety in broilers reared to market weight by histology (Example 8); assay type: in vivo, broiler chickens
Text: This study evaluates the safety of IRP001 chloride in broilers through examination of histology.
The objective of this study was to test the general safety of IRP001 chloride in broilers reared to market weight by examination of histology.
The experiment consisted of the following treatments (1 pen per treatment, Table 54).
Birds were kept in a pen having an area of 4×10=40 ft^2, with clean wood shavings as bedding with a thickness of approximately 4 inches. The pen had 5 feet high side walls with a bottom 1 ½ feet being of solid wood to prevent bird migration.
The temperature of the building was monitored. Environmental conditions during the trial (temperature) were appropriate (optimum) to the age of the animals. Illumination was provided by fluorescent bulbs placed above the pens. The diets were provided ad libitum in one tube-type feeder per pen. From D0 until D7, feed was also supplied on a tray placed on the litter of each pen. Water was provided ad libitum from one Plasson drinker per pen.
Standard floor pen management practices were used throughout the experiment. Animals and housing facilities were inspected twice daily, observing and recording the general health status, constant feed and water supply as well as temperature, removing all dead birds, and recognizing unexpected events. Birds found dead during the study were noted on the Daily Mortality Record, and were not replaced. Pen number, the date of mortality, sex, weight, and diagnosis were recorded.
Day of hatch male Cobb chicks were obtained and ten male broiler chicks were placed in each pen. Accountabilities of all test animals and any extra birds were recorded on animal disposition form. The birds were sexed at the hatchery. The breeder flock history and vaccination record at the hatchery were recorded. Bird weights by pen were recorded on D0 and 42.
All weights were by pen. Treatment Starter feed was fed from D0 to 21. On D21, non-consumed Starter was weighed by pen and discarded. Grower feed was issued and fed until D35. On D35, non-consumed Grower was weighed by pen and discarded. Finisher feed was fed until D42. On D42, non-consumed Finisher was weighed by pen and discarded.
On the day of study completion (D42), five birds from each pen were humanly euthanized and upper, mid and lower gut sections plus liver lobe were collected and stored in neutral buffered formalin. Theses samples were shipped for analysis.

[2] = Tissue residue study by LC-MS/MS after in-feed administration (Example 7): muscle and liver; conditions: for Mean residue, Breast / Mean residue, Lower leg / Mean residue, Upper leg / Mean residue IRP001, Liver: n = 3
[3] = tested on: Eimeria acervulina, E. maxima, and E. tenella; assay: Anticoccidial efficacy/sensitivity cage study (Example 9): lesion scores, oocysts per gram fecal material, coccidiosis mortality; conditions: for % Cocci Mort.: Day 0-20, infected
Clostridium Difficile = assay: In vitro MIC and MBC against Clostridium difficile (Example 6); assay type: cell-based; conditions: Clostridioides difficile, clinical isolate of C. difficile; test agent Berberine sulfate
Clostridium Perfringens = assay: microbe, parasite or virus in culture
E. coli causing scour = assay: In vitro MIC against pig disease strains incl. scour-inducing E. coli (Example 5); assay type: cell-based; conditions: Escherichia coli
[4] = IRP001 0.05 g/kg in feed, pen 2
[5] = Group 1, 0.03 g/kg IRP001 in feed (0-35 days), 0 days of washout
[6] = Group 2, 0.03 g/kg IRP001 in feed (0-35 days), 1 day of washout
[7] = Group 3, 0.03 g/kg IRP001 in feed (0-35 days), 2 days of washout
[8] = Group 4, 0.03 g/kg IRP001 in feed (0-35 days), 4 days of washout
[9] = Group 5, 0.03 g/kg IRP001 in feed (0-35 days), 7 days of washout
[10] = Group 6, 0.03 g/kg IRP001 in feed (0-28 days), 14 days of washout
[11] = Group 11, 0.3 g/kg IRP001 in feed (0-35 days), 7 days of washout
[12] = Group 12, 0.3 g/kg IRP001 in feed (0-28 days), 14 days of washout

For `COc1ccc2cc3[n+](cc2c1OC)CCc1cc2c(cc1-3)OCO2` [Berberine, berberine], the “adverse reaction or unanticipated event” value ([1]; 1 g berberine in 1 kg of commercial feed over 42 days) was “no adverse reaction or unanticipated event has been observed”, the “Histology index: Coccidia” value [1, 4] was 3.2 and the “Histology index: Cumulative Pathology” value [1, 4] was 9.6. For the same compound, the “Histology index: Enteritis” value [1, 4] was 6.4, the “Histology index: Coccidia” value ([1]; IRP001 0.5 g/kg in feed, pen 3) was 1.6 and the “Histology index: Cumulative Pathology” value ([1]; IRP001 0.5 g/kg in feed, pen 3) was 7.6. The “Histology index: Enteritis” value ([1]; IRP001 0.5 g/kg in feed, pen 3) was 6.0, the “Histology index: Coccidia” value ([1]; IRP001 1 g/kg in feed, pen 4) was 1.0 and the “Histology index: Cumulative Pathology” value ([1]; IRP001 1 g/kg in feed, pen 4) was 9.2. For the same compound, the “Histology index: Enteritis” value ([1]; IRP001 1 g/kg in feed, pen 4) was 8.2, the “residue level in liver” value ([2]; 0.03 g/kg feed, before and after washout) was “below the limit of detection” and the “mean residue level in muscle tissues” value ([2]; 0.03 g/kg feed, with or without washout) was “not detectable”. For the same compound, the “residue level in muscle tissues (breast, lower leg, upper leg)” value ([2]; 0.3 g/kg feed, after 4 days washout, listed as IRP001) was “below the LLOD”, the “residue level in liver” value ([2]; 0.3 g/kg feed, after a 14-day washout) was “below the limit of quantitation” and the “Mean residue, Breast” value [2, 5] was “<LLOD (outputs indicating values lower than 2 ng/g are considered to be within baseline noise, below the LLOD, and as such are not detectable)”. For the same compound, the “Mean residue, Lower leg” value [2, 5] was “<LLOD (outputs indicating values lower than 2 ng/g are considered to be within baseline noise, below the LLOD, and as such are not detectable)”, the “Mean residue, Upper leg” value [2, 5] was “<LLOD (outputs indicating values lower than 2 ng/g are considered to be within baseline noise, below the LLOD, and as such are not detectable)” and the “Mean residue, Breast” value [2, 6] was “<LLOD (outputs indicating values lower than 2 ng/g are considered to be within baseline noise, below the LLOD, and as such are not detectable)”. For the same compound, the “Mean residue, Lower leg” value [2, 6] was “<LLOD (outputs indicating values lower than 2 ng/g are considered to be within baseline noise, below the LLOD, and as such are not detectable)”, the “Mean residue, Upper leg” value [2, 6] was “<LLOD (outputs indicating values lower than 2 ng/g are considered to be within baseline noise, below the LLOD, and as such are not detectable)” and the “Mean residue, Breast” value [2, 7] was “<LLOD (outputs indicating values lower than 2 ng/g are considered to be within baseline noise, below the LLOD, and as such are not detectable)”. The “Mean residue, Lower leg” value [2, 7] was “<LLOD (outputs indicating values lower than 2 ng/g are considered to be within baseline noise, below the LLOD, and as such are not detectable)”, the “Mean residue, Upper leg” value [2, 7] was “<LLOD (outputs indicating values lower than 2 ng/g are considered to be within baseline noise, below the LLOD, and as such are not detectable)” and the “Mean residue, Breast” value [2, 8] was “<LLOD (outputs indicating values lower than 2 ng/g are considered to be within baseline noise, below the LLOD, and as such are not detectable)”. For the same compound, the “Mean residue, Lower leg” value [2, 8] was “<LLOD (outputs indicating values lower than 2 ng/g are considered to be within baseline noise, below the LLOD, and as such are not detectable)”, the “Mean residue, Upper leg” value [2, 8] was “<LLOD (outputs indicating values lower than 2 ng/g are considered to be within baseline noise, below the LLOD, and as such are not detectable)” and the “Mean residue, Breast” value [2, 9] was “<LLOD (outputs indicating values lower than 2 ng/g are considered to be within baseline noise, below the LLOD, and as such are not detectable)”. For the same compound, the “Mean residue, Lower leg” value [2, 9] was “<LLOD (outputs indicating values lower than 2 ng/g are considered to be within baseline noise, below the LLOD, and as such are not detectable)”, the “Mean residue, Upper leg” value [2, 9] was “<LLOD (outputs indicating values lower than 2 ng/g are considered to be within baseline noise, below the LLOD, and as such are not detectable)” and the “Mean residue, Breast” value [2, 10] was “<LLOD (outputs indicating values lower than 2 ng/g are considered to be within baseline noise, below the LLOD, and as such are not detectable)”. For the same compound, the “Mean residue, Lower leg” value [2, 10] was “<LLOD (outputs indicating values lower than 2 ng/g are considered to be within baseline noise, below the LLOD, and as such are not detectable)”, the “Mean residue, Upper leg” value [2, 10] was “<LLOD (outputs indicating values lower than 2 ng/g are considered to be within baseline noise, below the LLOD, and as such are not detectable)” and the “Mean residue, Breast” value ([2]; Group 10, 0.3 g/kg IRP001 in feed (0-35 days), 4 days of washout) was “<LLOD (outputs indicating values lower than 2 ng/g are considered to be within baseline noise, below the LLOD, and as such are not detectable)”. The “Mean residue, Breast” value [2, 11] was “<LLOD (outputs indicating values lower than 2 ng/g are considered to be within baseline noise, below the LLOD, and as such are not detectable)”, the “Mean residue, Lower leg” value [2, 11] was “<LLOD (outputs indicating values lower than 2 ng/g are considered to be within baseline noise, below the LLOD, and as such are not detectable)” and the “Mean residue, Upper leg” value [2, 11] was “<LLOD (outputs indicating values lower than 2 ng/g are considered to be within baseline noise, below the LLOD, and as such are not detectable)”. The “Mean residue, Breast” value [2, 12] was “<LLOD (outputs indicating values lower than 2 ng/g are considered to be within baseline noise, below the LLOD, and as such are not detectable)”, the “Mean residue, Lower leg” value [2, 12] was “<LLOD (outputs indicating values lower than 2 ng/g are considered to be within baseline noise, below the LLOD, and as such are not detectable)” and the “Mean residue, Upper leg” value [2, 12] was “<LLOD (outputs indicating values lower than 2 ng/g are considered to be within baseline noise, below the LLOD, and as such are not detectable)”. The “maximum acceptable residue (lower than one in a million risk of cancer)” value ([2]; estimated from typical lifetime consumption of chicken meat, breast or leg muscle tissue) was 13 ng berberine per gram of chicken meat, the “Mean residue IRP001, Liver” value ([2]; 0.03 g/kg IRP001 in feed days 0-28, 14 days of washout, euthanasia day 42) was “<LLOD (outputs indicating values lower than 2 ng/g are considered to be within baseline noise, below the LLOD, and as such are not detectable)” and the “Mean residue IRP001, Liver” value ([2]; 0.03 g/kg IRP001 in feed days 0-35, 0 days of washout, euthanasia day 35) was “<LLOD (outputs indicating values lower than 2 ng/g are considered to be within baseline noise, below the LLOD, and as such are not detectable)”. For the same compound, the “Mean residue IRP001, Liver” value ([2]; 0.03 g/kg IRP001 in feed days 0-35, 1 day of washout, euthanasia day 36) was “<LLOD (outputs indicating values lower than 2 ng/g are considered to be within baseline noise, below the LLOD, and as such are not detectable)”, the “Mean residue IRP001, Liver” value ([2]; 0.03 g/kg IRP001 in feed days 0-35, 2 days of washout, euthanasia day 37) was “<LLOD (outputs indicating values lower than 2 ng/g are considered to be within baseline noise, below the LLOD, and as such are not detectable)” and the “Mean residue IRP001, Liver” value ([2]; 0.03 g/kg IRP001 in feed days 0-35, 4 days of washout, euthanasia day 39) was “<LLOD (outputs indicating values lower than 2 ng/g are considered to be within baseline noise, below the LLOD, and as such are not detectable)”. For the same compound, the “Mean residue IRP001, Liver” value ([2]; 0.03 g/kg IRP001 in feed days 0-35, 7 days of washout, euthanasia day 42) was “<LLOD (outputs indicating values lower than 2 ng/g are considered to be within baseline noise, below the LLOD, and as such are not detectable)”, the “% Cocci Mort.” value ([3]; IRP001 0.03 g/kg) was 0.0b % and the “% Cocci Mort.” value ([3]; IRP001 0.10 g/kg) was 0.0b %. The “Lesion Scores Average” value ([3]; IRP001 0.03 g/kg) was 1.8b, the “Lesion Scores E. acer.” value ([3]; IRP001 0.03 g/kg) was 2.3b and the “Lesion Scores E. maxima” value ([3]; IRP001 0.03 g/kg) was 1.8bc. For the same compound, the “Lesion Scores E. tenella” value ([3]; IRP001 0.03 g/kg) was 1.2ab, the “Lesion Scores Average” value ([3]; IRP001 0.10 g/kg) was 1.5bc and the “Lesion Scores E. acer.” value ([3]; IRP001 0.10 g/kg) was 2.1bc. The “Lesion Scores E. maxima” value ([3]; IRP001 0.10 g/kg) was 1.5bcd, the “Lesion Scores E. tenella” value ([3]; IRP001 0.10 g/kg) was 0.8bcd and the MBC (Clostridium Difficile) was 1000 mg/L. It also gave an MBC (Clostridium Perfringens) of 125 mg/L, an MIC (Clostridium Perfringens) of 62.5 to 125 mg/L and an inhibition at 125 µg/mL (Clostridium Perfringens; read-out: killing of viable cells) of 100%. For the same compound, the MIC (E. coli causing scour) was 125 mg/L.
